In patent US9499550B2 (BRISTOL-MYERS SQUIBB COMPANY, priority 2012, dated 2016):
Where two headings read alike, the source gives them in different places.

What was measured:
[1] = system: HCV genotype 1a (H77 strain) replicon in HUH-7 cells; experiment: HCV replicon luciferase reporter assay, genotype 1a; assay type: cell-based; conditions: Hepatitis C virus, Huh-7, 72 h, 3 days incubation, read-out: LE_1a (EC50, range)
Summary of the method: (§1)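 Replicon inhibition for both genotypes was measured as Renilla luciferase signal (EnduRen, 7.5 μM final, 2 h) after 3-day, 37° C exposure of replicon-bearing HUH-7 cells in 4% FCS DMEM, 0.5% DMSO. The 1b construct carries S1179I; the 1a H77 construct carries P1496L and S2204I. Twenty-point, 3-fold dilutions were fitted four-parametrically for EC50, and CC50 was taken from multiplexed Cell Titer-Blue.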

[2] = system: HCV genotype 1b (Con1) replicon in HUH-7 cells; experiment: HCV replicon luciferase reporter assay, genotype 1b; assay type: cell-based; conditions: Hepatitis C virus, Huh-7, 72 h, 3 days incubation, read-out: LE_1b (EC50, range)
Summary of the method: as §1

[3] = GETYPE1A, HCV genotype 1a replicon luciferase
[4] = GETYPE1B, HCV genotype 1b replicon luciferase
[5] = HCV genotype 1a replicon luciferase assay, range class
[6] = HCV genotype 1b replicon luciferase assay, range class
[7] = HCV genotype 1a replicon luciferase
[8] = HCV genotype 1b replicon luciferase

SMILES	EC50 [1, 3] [nM]	EC50 [2, 4] [nM]	EC50 [1, 5] [nM]	EC50 [2, 6] [nM]	EC50 [1, 7] [nM]	EC50 [2, 8] [nM]
COc1ccc2c(O[C@@H]3C[C@H]4C(=O)N[C@]5(C(=O)NS(=O)(=O)C6(C)CC6)C[C@H]5/C=C\CC[C@@H](C)C[C@@H](C)[C@H](NC(=O)OC(C)(C)C(F)(F)F)C(=O)N4C3)ncc(N3CCOCC3)c2c1 [Compound 4135]	< 5.46	< 5.46				
COc1cnc(O[C@@H]2C[C@H]3C(=O)N[C@]4(C(=O)NS(=O)(=O)C5CC5)C[C@H]4/C=C\CC[C@H](C)C[C@@H](C)[C@H](NC(=O)OC(C)(C)C(F)(F)F)C(=O)N3C2)c2cccc(Cl)c12 [Compound 28, 1,1,1-trifluoro-2-methylpropan-2-yl((2R,6S,7R,9S,13aS,14aR,16aS,Z)-2-((5-chloro-4-methoxyisoquinolin-1-yl)oxy)-14a-((cyclopropylsulfonyl)carbamoyl)-7,9-dimethyl-5,16-dioxo-1,2,3,5,6,7,8,9,10,11,13a,14,14a,15,16,16a-hexadecahydrocyclopropa[e]pyrrolo[1,2-a][1,4]diazacyclopentadecin-6-yl)carbamate]			< 5.46	< 5.46		
CCOc1cnc(O[C@@H]2C[C@H]3C(=O)N[C@]4(C(=O)NS(=O)(=O)C5(C)CC5)C[C@H]4/C=C\CC[C@@H](C)C[C@@H](C)[C@H](NC(=O)OC(C)(C)C(F)(F)F)C(=O)N3C2)c2ccccc12 [Compound 4041]	< 5.46	< 5.46				
[2H]C([2H])([2H])C(OC(=O)N[C@@H]1C(=O)N2C[C@H](Oc3nccc4cc(OCCC)ccc34)C[C@H]2C(=O)N[C@]2(C(=O)NS(=O)(=O)C3CC3)C[C@H]2/C=C\CC[C@H](C)C[C@H]1C)(C([2H])([2H])[2H])C(F)(F)F [Compound 5172]					4.82 to 103	< 5.46
COCCOc1cc2c(Cl)cccc2c(O[C@@H]2C[C@H]3C(=O)N[C@]4(C(=O)NS(=O)(=O)C5(C)CC5)C[C@H]4/C=C\CC[C@@H](C)C[C@@H](C)[C@H](NC(=O)OC(C)(C)C)C(=O)N3C2)n1 [Compound 1118, tert-butyl ((2R,6S,7R,9R,13aS,14aR,16aS,Z)-2-((5-chloro-3-(2-methoxyethoxyl)isoquinolin-1-yl)oxy)-7,9-dimethyl-14a-(((1-methylcyclopropyl)sulfonyl)carbamoyl)-5,16-dioxo-1,2,3,5,6,7,8,9,10,11,13a,14,14a,15,16,16a-hexadecahydrocyclopropa[e]pyrrolo[1,2-a][1,4]diazacyclopentadecin-6-yl)carbamate]			< 5.46	< 5.46		
COc1ccc2c(O[C@@H]3C[C@H]4C(=O)N[C@]5(C(=O)NS(=O)(=O)C6(C(F)F)CC6)C[C@H]5/C=C\CC[C@@H](C)C[C@@H](C)[C@H](NC(=O)OC(C)(C)C)C(=O)N4C3)nc(OC)cc2c1 [Compound 1180, tert-butyl ((2R,6S,7R,9R,13aS,14aR,16aS,Z)-14a-(((1-(difluoromethyl)cyclopropyl)sulfonyl)carbamoyl)-2-((3,6-dimethoxyisoquinolin-1-yl)oxy)-7,9-dimethyl-5,16-dioxo-1,2,3,5,6,7,8,9,10,11,13a,14,14a,15,16,16a-hexadecahydrocyclopropa[e]pyrrolo[1,2-a][1,4]diazacyclopentadecin-6-yl)carbamate]			< 5.46	< 5.46		
CC[C@@H]1C[C@H](C)CC/C=C\[C@@H]2C[C@@]2(C(=O)NS(=O)(=O)C2(C)CC2)NC(=O)[C@@H]2C[C@@H](Oc3nc(OC)cc4cc(OC)c(F)cc34)CN2C(=O)[C@H]1NC(=O)OC(C)(C)C(F)(F)F [Compound 1187]	5.01 to 35	1.01 to 5				
CC[C@@H]1C[C@@H](C)CC/C=C\[C@@H]2C[C@@]2(C(=O)NS(=O)(=O)C2(C)CC2)NC(=O)[C@@H]2C[C@@H](Oc3nccc4c5c(ccc34)OCCO5)CN2C(=O)[C@H]1NC(=O)OC(C)(C)C [Compound 5339, tert-butyl ((2R,6S,7R,9S,13aS,14aR,16aS,Z)-2-((2,3-dihydro-[1,4]dioxino[2,3-f]isoquinolin-7-yl)oxy)-7-ethyl-9-methyl-14a-(((1-methylcyclopropyl)sulfonyl)carbamoyl)-5,16-dioxo-1,2,3,5,6,7,8,9,10,11,13a,14,14a,15,16,16a-hexadecahydrocyclopropa[e]pyrrolo[1,2-a][1,4]diazacyclopentadecin-6-yl)carbamate]					4.82 to 103	< 5.46
CCn1nc(O[C@@H]2C[C@H]3C(=O)N[C@]4(C(=O)NS(=O)(=O)C5(C)CC5)C[C@H]4/C=C\CC[C@@H](C)C[C@@H](C)[C@H](NC(=O)NC(C)(C)C)C(=O)N3C2)c2ccccc2c1=O [Compound 5059, (2R,6S,7R,9R,13aS,14aR,16aS,Z)-6-(3-(tert-butyl)ureido)-2-((3-ethyl-4-oxo-3,4-dihydrophthalazin-1-yl)oxy)-7,9-dimethyl-N-((1-methylcyclopropyl)sulfonyl)-5,16-dioxo-1,2,3,5,6,7,8,9,10,11,13a,14,14a,15,16,16a-hexadecahydrocyclopropa[e]pyrrolo[1,2-a][1,4]diazacyclopentadecine-14a-carboxamide]					4.82 to 103	4.82 to 103
COc1ccc2c(O[C@@H]3C[C@H]4C(=O)N[C@]5(C(=O)NS(=O)(=O)C6(CF)CC6)C[C@H]5/C=C\CC[C@@H](C)C[C@@H](C)[C@H](NC(=O)O[C@]5(C(F)(F)F)CCCOC5)C(=O)N4C3)nc(-c3ccc(OC(C)C)cc3)cc2c1 [Compound 1184]	1.01 to 5	1.01 to 5				
CC[C@@H]1C[C@H](C)CC/C=C\[C@@H]2C[C@@]2(C(=O)NS(=O)(=O)C2(C)CC2)NC(=O)[C@@H]2C[C@@H](Oc3nc4cc(OC)ccc4nc3Cl)CN2C(=O)[C@H]1NC(=O)OC(C)(C)C(F)(F)F [Compound 4257]	5.01 to 35	0.51 to 1				
C[C@H]1CC/C=C\[C@@H]2C[C@@]2(C(=O)NS(=O)(=O)C2CC2)NC(=O)[C@@H]2C[C@@H](Oc3nc(OCC(F)F)cc4c(Cl)cccc34)CN2C(=O)[C@@H](NC(=O)OC(C)(C)C(F)(F)F)[C@H](C)C1 [Compound 1095, 1,1,1-trifluoro-2-methylpropan-2-yl((2R,6S,7R,9S,13aS,14aR,16aS,Z)-2-((5-chloro-3-(2,2-difluoroethoxyl)isoquinolin-1-yl)oxy)-14a-((cyclopropylsulfonyl)carbamoyl)-7,9-dimethyl-5,16-dioxo-1,2,3,5,6,7,8,9,10,11,13a,14,14a,15,16,16a-hexadecahydrocyclopropa[e]pyrrolo[1,2-a][1,4]diazacyclopentadecin-6-yl)carbamate]			4.82 to 103	< 5.46		
[2H]C([2H])([2H])C(OC(=O)N[C@@H]1C(=O)N2C[C@H](Oc3nnc(OC)c4ccccc34)C[C@H]2C(=O)N[C@]2(C(=O)NS(=O)(=O)C3(C)CC3)C[C@H]2/C=C\CC[C@@H](C)C[C@H]1C)(C([2H])([2H])[2H])C(F)(F)F [Compound 5010]					< 5.46	< 5.46
COc1ccc2c(O[C@@H]3C[C@H]4C(=O)N[C@]5(C(=O)NS(=O)(=O)C6CC6)C[C@H]5/C=C\CC[C@H](C)C[C@@H](C)[C@H](NC(=O)OC(C)(C)C(F)(F)F)C(=O)N4C3)nc(-c3ccc(OC)c(Cl)c3)cc2c1 [Compound 3051, 1,1,1-trifluoro-2-methylpropan-2-yl((2R,6S,7R,9S,13aS,14aR,16aS,Z)-2-((3-(3-chloro-4-methoxyphenyl)-6-methoxyisoquinolin-1-yl)oxy)-14a-((cyclopropylsulfonyl)carbamoyl)-7,9-dimethyl-5,16-dioxo-1,2,3,5,6,7,8,9,10,11,13a,14,14a,15,16,16a-hexadecahydrocyclopropa[e]pyrrolo[1,2-a][1,4]diazacyclopentadecin-6-yl)carbamate]			4.82 to 103	< 5.46		
CC[C@@H]1C[C@H](C)CC/C=C\[C@@H]2C[C@@]2(C(=O)NS(=O)(=O)C2(C)CC2)NC(=O)[C@@H]2C[C@@H](Oc3ncc(OC)c4cc(N(C)C)ccc34)CN2C(=O)[C@H]1NC(=O)OC(C)(C)C [Compound 3206, tert-butyl ((2R,6S,7R,9R,13aS,14aR,16aS,Z)-2-((6-(dimethylamino)-4-methoxyisoquinolin-1-yl)oxy)-7-ethyl-9-methyl-14a-(((1-methylcyclopropyl)sulfonyl)carbamoyl)-5,16-dioxo-1,2,3,5,6,7,8,9,10,11,13a,14,14a,15,16,16a-hexadecahydrocyclopropa[e]pyrrolo[1,2-a][1,4]diazacyclopentadecin-6-yl)carbamate]					1.01 to 5	1.01 to 5
CCOc1nnc(O[C@@H]2C[C@H]3C(=O)N[C@]4(C(=O)NS(=O)(=O)C5(C)CC5)C[C@H]4/C=C\CC[C@H](C)C[C@@H](C)[C@H](NC(=O)OC(C)(C)C(F)(F)F)C(=O)N3C2)c2ccccc12 [Compound 5030, 1,1,1-trifluoro-2-methylpropan-2-yl((2R,6S,7R,9S,13aS,14aR,16aS,Z)-2-((4-ethoxyphthalazin-1-yl)oxy)-7,9-dimethyl-14a-(((1-methylcyclopropyl)sulfonyl)carbamoyl)-5,16-dioxo-1,2,3,5,6,7,8,9,10,11,13a,14,14a,15,16,16a-hexadecahydrocyclopropa[e]pyrrolo[1,2-a][1,4]diazacyclopentadecin-6-yl)carbamate]					4.82 to 103	4.82 to 103
